The text below walks through data of patent US5807885A, “Amidine derivatives with nitric oxide synthetase activities” (priority 1996, dated 1998).

What is called inhibition is the percentage by which the read-out fell short of the control.

The target of test [1] is T1, neuronal nitric oxide synthetase (Rattus norvegicus, UniProt P29476).
T1 construct: Enzyme was isolated from rat hippocampus or cerebellum; from tissue; host or cells: cerebellum or hippocampus of male Sprague-Dawley rat, 20,000 g supernatant
The test is described as follows: Screen A: screen for neuronal nitric oxide synthetase inhibitory activity. It counts as biochemical. The following applies: for IC50: neuronal isoform, rat hippocampus or cerebellum supernatant, read-out: IC50 (concentration of drug substance which gives 50% enzyme inhibition in the assay).
Description: (A) Screen for neuronal nitric oxide synthetase inhibitory activity
Enzyme was isolated from rat hippocampus or cerebellum. The cerebellumn or hippocampus of a male Sprague-Dawley rat (250-275 g) is removed following CO2 anaesthesia of the animal and decapitation. Cerebellar or hippocampal supernatant is prepared by homogenisation in 50 mM Tris-HCl with 1 mM EDTA buffer (pH 7.2 at 25° C.) and centifugation for 15 minutes at 20,000 g. Residual L-arginine is removed from the supernatant by chromatography through Dowex AG-50W-X8 sodium form and hydrogen form columns successively, and further centrifugation at 1000 g for 30 seconds.
For the assay, 25 μl of the final supernatant is added to each of 12 test tubes containing 25 μl L-arginine solution (of concentration 18 μM ^1 H-L-arginine, 96 nM ^3 H-L-arginine) and either 25 μl of an assay buffer (50 mM HEPES, 1 mM EDTA, 1.5 mM CaCl2, pH 7.4) or 25 μl of test compound in the buffer at 22° C. To each test tube was added 75 μl of complete assay buffer (50 mM HEPES, 1 mM EDTA, 1.5 mM CaCl2, 1 mM DTF, 100 μM NADPH, 10 μg/ml calmodulin, pH 7.4) to initiate the reaction and the reaction is stopped after 10 minutes by addition of 2 ml of a termination buffer (20 mM HEPES, 2 mM EDTA, pH 55).
Labelled L-citrulline is separated from labelled L-arginine by chromatography over a Dowex AG-50W-X8 200-400 mesh column. 1 ml of each terminated reaction is added to an individual 1 ml column and the eluant combined with that from two 1 ml distilled water washes and 16 ml of scintillation cocktal The L-citrulline is then quantified by scintillation counting.
IC50 values for test compounds were initially estimated from the inhibiting activity of 1, 10 and 100 μM solutions of the compounds. Compounds that inhibited the enzyme by at least 50% at 10 μM were retested using more appropriate concentrations so that an IC50 could be determined.

The target in test [2] is T2, macrophage nitric oxide synthetase (Mus musculus, UniProt P29477).
T2 construct: Nitric oxide synthetase is produced by cells in response to interferon-γ (IFNγ) and lipopolysaccharide (LPS); endogenous in cells; host or cells: murine macrophage cell line J774A-1, induced with IFN-gamma and LPS (cell line from Imperial Cancer Research Fund)
Briefly: Screen B: screen for macrophage nitric oxide synthetase activity. The test is classed as biochemical, murine. Conditions: macrophage isoform (Screen B) versus neuronal isoform (Screen A). From the text:
The enzyme nitric oxide synthetase has a number of isoforms and compounds of formula I, or pharmaceutically acceptable salts thereof, may be screened for nitric oxide synthetase inhibitory activity by procedures based on those of Bredt and Snyder in Proc. Natl. Acad. Sci (1990) 87, 682-685 and Forstermann et. al. (1992) Eur. J. Pharm. 225,161-165 as follows. Nitric axide synthetase converts ^3 H-L-arginine to ^3 H-L-citrulline which can be separated by cation exchange chromatography and quantified by liquid scintillation counting.
(B) Screen for macrophage nitric oxide synthetase activity
Enzyme is prepared; after induction, from the cultured murine macrophage cell line J774A-1 (obtained from laboratories of the Imperial Cancer Research Fund). J774A-1 cells are cultured in Dulbecco's Modified Eagles Medium (DMEM) supplemented with 10% foetal bovine serum, 4 mM L-glutamine and antibiotics (100 units/ml penicillin G, 100 μg/ml streptomycin & 0.25 μg/m amphotericin B). Cells are routinely grown in […] flasks containing 35 ml medium kept at 37° C. and in a humidified atmosphere containing 5% CO2.
Nitric oxide synthetase is produced by cells in response to interferon-γ (IFNγ) and lipopolysaccharide (LPS). […]
Labelled L-citrulline is separated from labelled L-arginine using Dowex AG-50W. […] After allowing the samples to dry the L-citrulline is quantified by scintillation counting. […]

Test [3] deals with T3, endothelial nitric oxide synthetase (Homo sapiens, UniProt P29474).
T3 construct: Enzyme may be isolated from human umbilical vein endothelial cells (HUVECs); host or cells: human umbilical vein endothelial cells (HUVECs)
Briefly: Screen C: screen for endothelial nitric oxide synthetase inhibitory activity. The test is classed as biochemical.
Excerpt: (C) Screen for endothelial nitric oxide synthetase inhibitory activity
Enzyme may be isolated from human umbilical vein endothelial cells (HUVECs) by a procedure based on that of Pollock et al (1991) Proc. Nat. […] HUVECs were purchased from Clonetics Corp (San Diego, Calif., USA) and cultured to confluency. Cells can be maintained to passage 35-40 without significant loss of yield of nitric oxide synthetase. When cells reach confluency, they are resuspended in Dulbecco's phosphate buffered saline, centrifuged at 800 rpm for 10 mins, the cell pellet homogenised in ice-cold 50 mM Tris-HCl, 1 mM EDTA, 10% glycerol, 1 mM phenylmethylsulphonylfluoride, 2 μM leupeptin at pH 4.2. Following centrifugation at 34,000 rpm for 60 mins, the pellet is solubilised in the homogenisation buffer which also contains 20 mM CHAPS. After a 30 min incubation on ice, the suspension is centrifuged at 34,000 rpm for 30 mins. The resulting supernatant is stored at -80° C. until use. […]
Labelled L-citrulline is separated from labelled L-arginine by chromatography over a Dowex AG-50W-X8 200-400 mesh column. […] The L-citrulline is then quantified by scintillation counting. […]

T1 sequence (P29476 whole entry): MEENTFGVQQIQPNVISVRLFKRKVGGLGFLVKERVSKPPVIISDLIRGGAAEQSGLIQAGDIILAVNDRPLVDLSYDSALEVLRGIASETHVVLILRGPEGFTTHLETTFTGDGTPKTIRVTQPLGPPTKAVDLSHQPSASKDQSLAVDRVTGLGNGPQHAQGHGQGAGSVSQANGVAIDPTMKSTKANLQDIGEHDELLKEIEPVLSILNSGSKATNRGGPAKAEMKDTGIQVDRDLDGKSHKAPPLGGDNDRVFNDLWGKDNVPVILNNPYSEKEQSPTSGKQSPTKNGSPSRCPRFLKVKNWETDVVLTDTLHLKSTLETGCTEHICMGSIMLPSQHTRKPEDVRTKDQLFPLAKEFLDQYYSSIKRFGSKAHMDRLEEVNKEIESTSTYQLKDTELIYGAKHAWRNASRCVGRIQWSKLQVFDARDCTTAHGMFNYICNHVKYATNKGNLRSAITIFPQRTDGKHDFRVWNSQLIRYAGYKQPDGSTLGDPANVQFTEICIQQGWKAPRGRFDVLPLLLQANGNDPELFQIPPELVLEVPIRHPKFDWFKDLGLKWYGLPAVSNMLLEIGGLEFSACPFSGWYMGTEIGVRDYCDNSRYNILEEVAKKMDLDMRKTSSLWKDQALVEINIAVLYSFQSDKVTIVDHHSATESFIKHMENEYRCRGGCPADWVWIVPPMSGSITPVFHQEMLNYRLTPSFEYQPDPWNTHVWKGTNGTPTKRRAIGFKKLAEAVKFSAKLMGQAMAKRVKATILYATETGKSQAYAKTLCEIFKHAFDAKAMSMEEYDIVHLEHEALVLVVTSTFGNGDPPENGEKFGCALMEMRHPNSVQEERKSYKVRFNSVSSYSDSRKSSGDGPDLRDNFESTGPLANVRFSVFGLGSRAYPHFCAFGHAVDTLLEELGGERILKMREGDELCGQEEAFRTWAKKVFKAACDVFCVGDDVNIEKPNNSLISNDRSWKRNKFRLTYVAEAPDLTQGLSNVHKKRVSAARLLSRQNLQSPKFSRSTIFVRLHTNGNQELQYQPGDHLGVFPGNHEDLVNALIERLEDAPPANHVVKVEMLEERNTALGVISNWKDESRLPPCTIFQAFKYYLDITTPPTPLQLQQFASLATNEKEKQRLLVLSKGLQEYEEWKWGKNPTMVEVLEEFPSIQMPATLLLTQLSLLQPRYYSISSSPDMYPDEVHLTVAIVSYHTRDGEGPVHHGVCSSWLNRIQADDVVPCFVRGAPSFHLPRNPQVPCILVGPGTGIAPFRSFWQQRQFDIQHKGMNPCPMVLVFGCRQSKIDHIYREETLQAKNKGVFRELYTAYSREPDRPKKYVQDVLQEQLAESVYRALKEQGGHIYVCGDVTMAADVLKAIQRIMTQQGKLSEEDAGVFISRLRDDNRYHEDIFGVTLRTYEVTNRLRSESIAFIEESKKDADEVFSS
T3 sequence (P29474 2-1203): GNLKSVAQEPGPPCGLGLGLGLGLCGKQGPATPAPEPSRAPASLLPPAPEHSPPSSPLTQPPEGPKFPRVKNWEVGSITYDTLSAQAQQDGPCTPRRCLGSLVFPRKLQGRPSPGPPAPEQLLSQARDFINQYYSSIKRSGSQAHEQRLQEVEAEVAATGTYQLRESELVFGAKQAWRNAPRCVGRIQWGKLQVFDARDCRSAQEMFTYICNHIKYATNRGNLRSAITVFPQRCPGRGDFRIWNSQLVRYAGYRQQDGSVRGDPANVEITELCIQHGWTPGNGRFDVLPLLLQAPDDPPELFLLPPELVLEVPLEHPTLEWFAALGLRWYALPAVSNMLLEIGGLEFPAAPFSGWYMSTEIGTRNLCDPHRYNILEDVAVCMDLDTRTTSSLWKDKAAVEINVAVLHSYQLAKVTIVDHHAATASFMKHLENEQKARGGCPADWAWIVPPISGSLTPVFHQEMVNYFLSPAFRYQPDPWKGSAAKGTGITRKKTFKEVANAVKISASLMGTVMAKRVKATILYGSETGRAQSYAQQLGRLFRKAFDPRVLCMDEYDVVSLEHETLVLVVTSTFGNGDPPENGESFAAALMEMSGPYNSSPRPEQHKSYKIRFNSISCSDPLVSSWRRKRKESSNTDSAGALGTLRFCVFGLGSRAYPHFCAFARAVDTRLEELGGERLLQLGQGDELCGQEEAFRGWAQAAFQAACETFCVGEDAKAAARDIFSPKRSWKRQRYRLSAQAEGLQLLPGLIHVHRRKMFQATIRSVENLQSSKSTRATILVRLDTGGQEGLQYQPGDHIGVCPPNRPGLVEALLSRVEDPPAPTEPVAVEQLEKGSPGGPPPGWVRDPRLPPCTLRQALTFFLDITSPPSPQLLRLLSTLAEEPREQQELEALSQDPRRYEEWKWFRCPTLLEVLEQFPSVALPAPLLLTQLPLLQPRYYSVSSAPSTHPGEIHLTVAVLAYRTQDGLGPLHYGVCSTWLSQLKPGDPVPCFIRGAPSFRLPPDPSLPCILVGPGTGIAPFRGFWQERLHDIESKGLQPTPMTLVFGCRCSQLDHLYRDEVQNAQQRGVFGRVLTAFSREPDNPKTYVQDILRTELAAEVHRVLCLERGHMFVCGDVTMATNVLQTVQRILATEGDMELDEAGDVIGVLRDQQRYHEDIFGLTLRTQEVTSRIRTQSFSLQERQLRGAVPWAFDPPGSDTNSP

Turning to `NC(=Nc1ccc(CCNCc2ccccc2)cc1)c1cccs1` [Example 1, N-(4-(2-((phenylmethyl)amino)ethyl)phenyl)-2-thiophenecarboximidamide], in test [1], the IC50 is less than 10 µM. In test [2], the “IC50 in Screen B relative to IC50 in Screen A” value is “more than 10 times”. Also, in test [3] (endothelial isoform (Screen C) versus neuronal isoform (Screen A)), the “IC50 in Screen C relative to IC50 in Screen A” value is on record as “more than 10 times”. Consider `N=C(Nc1ccc(C(=O)Nc2ccccc2)cc1)c1cccs1` [Example 27(b), N-(4-((phenylamino)carbonyl)phenyl)-2-thiophenecarboximidamide], for which the IC50 in test [1] was less than 10 µM. Same read-out and setting: as for `N=C(Nc1ccc(CCCC(=O)N2CCOCC2)cc1)c1cccs1` [27(a), N-(4-(3-((4-morpholinyl)carbonyl)propyl)phenyl)-2-thiophenecarboximidamide], the figure is less than 10 µM.

In turn, `CN(CCc1ccc(NC(=N)C(F)(F)F)cc1)Cc1ccccc1` [Example 72, N-(4-(2-((phenylmethyl)(methyl)amino)ethyl)phenyl)trifluoroacetimidamide] had an inhibition at 10 µM in test [1] (at 10 μM) of 17%.

Take `NC(=Nc1ccc(NC(=O)N(c2ccccc2)c2ccccc2)cc1)c1cccs1` [Example 48, N-[4-(((Diphenylamino)carbonyl)amino)phenyl]-2-thiophenecarboxamidine]: in test [1], the IC50 was less than 100 µM. Consider `NC(=N[N+](=O)[O-])NCCC[C@H](N)C(=O)O` [N-nitro-L-arginine, reference compound], for which the inhibition at 1 µM in test [3] (Screen C, at a concentration of 1 μM, HUVEC enzyme, read-out: inhibition of nitric oxide synthetase (reference standard)) was 70 to 90%.
